Reference: ChEMBL document CHEMBL1949499, “Nicotinic acids: liver-targeted SCD inhibitors with preclinical anti-diabetic efficacy” (Bioorg Med Chem Lett, 2011)

Key:
[1] = Drug uptake in C57/BL6 mouse harderian glands at 30 mg/kg, po after 6 hrs; assay type: ADME, organism-based, Harderian gland; parameters: dose 30 mg/kg, route oral; conditions: read-out: Drug uptake
[2] = Drug uptake in C57/BL6 mouse left epididymal fat at 30 mg/kg, po after 24 hrs; assay type: ADME, organism-based, Epididymal fat pad; parameters: dose 30 mg/kg, route oral; conditions: male, read-out: Drug uptake
[3] = Drug uptake in C57/BL6 mouse left median liver lobe at 30 mg/kg, po after 2 hrs; assay type: ADME, organism-based; parameters: dose 30 mg/kg, route oral; conditions: read-out: Drug uptake
[4] = Volume of distribution at steady state in C57/BL6 mouse at 10 mg/kg, po and 2 mg/kg, iv; assay type: ADME, organism-based; conditions: in vivo, read-out: Vdss
[5] = Drug uptake in C57/BL6 mouse heart at 30 mg/kg, po after 24 hrs; assay type: ADME, organism-based; parameters: dose 30 mg/kg, route oral; conditions: read-out: Drug uptake
[6] = Half life in C57/BL6 mouse at 10 mg/kg, po and 2 mg/kg, iv; assay type: ADME, organism-based; conditions: in vivo
[7] = Drug uptake in C57/BL6 mouse skin at 30 mg/kg, po after 6 hrs; assay type: ADME, organism-based, Zone of skin; parameters: dose 30 mg/kg, route oral; conditions: read-out: Drug uptake
[8] = tested on: Mus musculus; assay: Inhibition of SCD activity in high sucrose/fat free diet fed C57/BL6 mouse liver assessed as reduction in conversion of [14C]stearic acid to [14C]oleic acid at 10 mg/kg, po; assay type: functional
[9] = Drug uptake in C57/BL6 mouse kidney at 30 mg/kg, po after 6 hrs; assay type: ADME, organism-based; parameters: dose 30 mg/kg, route oral; conditions: read-out: Drug uptake
[10] = Plasma concentration in high sucrose/fat free diet fed C57/BL6 mouse at 30 mg/kg, po after 3 hrs; assay type: ADME, organism-based; parameters: dose 30 mg/kg, route oral
[11] = Drug uptake in C57/BL6 mouse heart at 30 mg/kg, po after 2 hrs; assay type: ADME, organism-based; parameters: dose 30 mg/kg, route oral; conditions: read-out: Drug uptake
[12] = Drug uptake in high sucrose/fat free diet fed C57/BL6 mouse liver at 10 mg/kg, po after 3 hrs; assay type: ADME, organism-based; parameters: dose 10 mg/kg, route oral; conditions: read-out: Drug uptake
[13] = molecular target: T1, Stearoyl-CoA desaturase (Homo sapiens, UniProt O00767); assay: Inhibition of human SCD1
T1 sequence (O00767 whole entry): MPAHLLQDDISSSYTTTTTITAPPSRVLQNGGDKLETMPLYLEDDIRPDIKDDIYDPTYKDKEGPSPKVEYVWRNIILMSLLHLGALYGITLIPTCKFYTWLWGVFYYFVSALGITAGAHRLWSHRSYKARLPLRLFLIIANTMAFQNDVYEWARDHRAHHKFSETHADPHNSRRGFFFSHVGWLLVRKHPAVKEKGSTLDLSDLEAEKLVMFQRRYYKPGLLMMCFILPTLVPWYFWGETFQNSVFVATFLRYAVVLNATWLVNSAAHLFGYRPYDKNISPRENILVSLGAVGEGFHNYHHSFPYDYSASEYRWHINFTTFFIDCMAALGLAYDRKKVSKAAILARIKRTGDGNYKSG

[14] = Drug uptake in C57/BL6 mouse kidney at 30 mg/kg, po after 24 hrs; assay type: ADME, organism-based; parameters: dose 30 mg/kg, route oral; conditions: read-out: Drug uptake
[15] = tested on: Mus musculus; assay: Inhibition of SCD activity in high sucrose/fat free diet fed C57/BL6 mouse liver assessed as reduction in conversion of [14C]stearic acid to [14C]oleic acid at 30 mg/kg, po; assay type: functional
[16] = molecular target: T2, Acyl-CoA desaturase 1 (Rattus norvegicus, UniProt P07308); assay: Inhibition of SCD1 in Sprague-Dawley rat hepatocytes assessed as conversion of [14C]oleic acid formation by HPLC analysis; assay type: cell-based, Hepatocyte
T2 sequence (P07308 whole entry): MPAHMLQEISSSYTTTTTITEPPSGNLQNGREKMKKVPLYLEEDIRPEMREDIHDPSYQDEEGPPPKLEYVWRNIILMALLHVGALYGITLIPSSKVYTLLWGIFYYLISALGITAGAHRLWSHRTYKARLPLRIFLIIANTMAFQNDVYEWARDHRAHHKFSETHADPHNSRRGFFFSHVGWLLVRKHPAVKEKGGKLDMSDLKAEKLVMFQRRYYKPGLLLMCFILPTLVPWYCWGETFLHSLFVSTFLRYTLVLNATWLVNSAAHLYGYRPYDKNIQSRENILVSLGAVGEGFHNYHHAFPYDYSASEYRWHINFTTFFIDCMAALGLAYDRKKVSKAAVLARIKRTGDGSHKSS

[17] = tested on: Mus musculus; assay: Acute antidiabetic activity in high fat diet fed C57/BL6 mouse eDIO model assessed as increase in glucose clearance at 30 mg/kg, po administered 1 hr prior to glucose challenge by oGTT assay; assay type: functional
[18] = Drug uptake in C57/BL6 mouse cerebellum at 30 mg/kg, po after 24 hrs; assay type: ADME, organism-based; parameters: dose 30 mg/kg, route oral; conditions: read-out: Drug uptake
[19] = Drug uptake in high fat diet fed C57/BL6 mouse eDIO model whole blood at 30 mg/kg, po after 3 hrs; assay type: ADME, organism-based; parameters: dose 30 mg/kg, route oral; conditions: read-out: Drug uptake
[20] = Drug uptake in C57/BL6 mouse left epididymal fat at 30 mg/kg, po after 6 hrs; assay type: ADME, organism-based, Epididymal fat pad; parameters: dose 30 mg/kg, route oral; conditions: male, read-out: Drug uptake
[21] = Drug uptake in C57/BL6 mouse cerebellum at 30 mg/kg, po after 6 hrs; assay type: ADME, organism-based; parameters: dose 30 mg/kg, route oral; conditions: read-out: Drug uptake
[22] = Drug uptake in high sucrose/fat free diet fed C57/BL6 mouse liver at 30 mg/kg, po after 3 hrs; assay type: ADME, organism-based; parameters: dose 30 mg/kg, route oral; conditions: read-out: Drug uptake
[23] = Volume of distribution at steady state in Sprague-Dawley rat at 10 mg/kg, po and 2 mg/kg, iv; assay type: ADME, organism-based; conditions: in vivo, read-out: Vdss
[24] = AUC in C57/BL6 mouse plasma at 10 mg/kg, po and 2 mg/kg, iv; assay type: ADME, organism-based
[25] = Oral bioavailability in Sprague-Dawley rat plasma at 10 mg/kg; assay type: ADME, organism-based
[26] = Plasma clearance in Sprague-Dawley rat at 10 mg/kg, po and 2 mg/kg, iv; assay type: ADME, organism-based
[27] = Drug uptake in C57/BL6 mouse kidney at 30 mg/kg, po after 2 hrs; assay type: ADME, organism-based; parameters: dose 30 mg/kg, route oral; conditions: read-out: Drug uptake
[28] = molecular target: T2, Acyl-CoA desaturase 1; assay: Inhibition of rat SCD1
[29] = Drug uptake in high fat diet fed C57/BL6 mouse eDIO model whole blood at 100 mg/kg, po after 3 hrs; assay type: ADME, organism-based; parameters: dose 100 mg/kg, route oral; conditions: read-out: Drug uptake

Compound `O=C(O)c1cncc(-c2ccc(N3CCC(Oc4cc(F)ccc4Br)CC3)nn2)c1` has a concentration at 6 h [1] of 98 nM, a concentration at 24 h [2] of 45 nM and a concentration at 2 h [3] of 4390 nM. For the same compound, the Vd [4] was 1.12 L/kg, the concentration at 24 h [5] was 32 nM and the half-life [6] was 24 min. For the same compound, the concentration at 6 h [7] was 55 nM, the inhibition in vivo at 10 mg/kg [8] was 25% and the concentration at 6 h [9] was 1920 nM. The concentration at 3 h [10] was 450 nM, the concentration at 2 h [11] was 177 nM and the concentration at 3 h [12] was 2970 nM. It also gave an IC50 [13] of 0.007 µM, a concentration at 24 h [14] of 29 nM and an inhibition in vivo at 30 mg/kg [15] of 74%. It also gave an IC50 [16] of 0.175 µM, an Activity [17] of 59% and a concentration at 24 h [18] of 5 nM. The concentration at 3 h [19] was 320 nM, the concentration at 6 h [20] was 111 nM and the concentration at 6 h [21] was 17 nM. It also gave a concentration at 3 h [22] of 9290 nM, a Vd [23] of 0.41 L/kg and an AUC [24] of 0.3 µM·h. For the same compound, the bioavailability [25] was 43%, the clearance [26] was 8.6 mL/min/kg and the concentration at 2 h [27] was 6140 nM. It also gave an IC50 [28] of 0.015 µM and a concentration at 3 h [29] of 2240 nM.
